Results from paper PMC8868297, “Stapling of Peptides Potentiates the Antibiotic Treatment of Acinetobacter baumannii In Vivo” (Antibiotics, 2022).
Bridge positions count the residues as written; N and C are the ends. Square brackets hold non-standard residues; d marks the D form. Ends that are not written are not given here. Peptide text beside a SMILES is read from it. R8 = C=CCCCCCC[C@@](C)(N)C(=O)O; S5 = C=CCCC[C@](C)(N)C(=O)O

Experiments:
[1] = circular dichroism; details: 5 mM sodium phosphate; pH 7.5; 20 °C; 7.5 uM
[2] = test system: A. baumannii 1757; assay: MIC / checkerboard synergy assay (also with added LPS); type: cell-based, Acinetobacter baumannii; details: mean ± SD; for MIC (compound alone): LB broth, MIC = 90% of growth prevented, OD600 over 12 h; for MIC, + Rd-LPS (F583): LB medium with soluble deep rough LPS 15 µg/ml; for MIC, + Sm-LPS (055:B5): LB medium with soluble smooth LPS 15 µg/ml; for MIC, No supplement: LB medium without supplement (Table S4)
Procedure: (§1) Minimum inhibitory concentrations of the peptides and antibiotics were determined according to the protocol described by Wiegand et al.. Briefly, two-fold dilution series of cationic peptides in 50 µL volume of LB broth containing 2% DMSO were made in polypropylene 96-well microtiter plates (Ratiolab, L6018123, Dreieich, Germany). The optical density at 600 nm (OD600) of growing bacterial cultures was followed, and at mid-log-phase (OD600 ~0.4–0.5) cultures were diluted to OD600 0.02 and 50 µL was added to the wells, resulting in a total volume of 100 µl, an OD600 of ~0.01 and a DMSO concentration of 1%. An OD600 of ~0.01 accounted for approximately 3 × 10^8 colony forming units per mL (CFU/mL) for A. baumannii, 1 × 10^7 CFU/mL for E. coli and 5 × 10^7 CFU/mL for K. pneumoniae as determined by plate counting.
(§2) In a similar manner, two-fold dilution series of antibiotics were made in polystyrene microtiter plates (Costar, REF3779, Corning NY, United States) in 70 µL volume of LB broth. Then, 50 µL of the antibiotic series was transferred to the peptide containing polypropylene plate, resulting in a checkerboard titration of a peptide on the vertical axis and an antibiotic on the horizontal axis. To some checkerboard assays 15 µg/mL isolated smooth (sm) LPS (from E. coli O55:B5, Sigma-Aldrich, L2880), rough (Ra) LPS (from E. coli EH100, Sigma-Aldrich, L9641) or deep rough (Rd) LPS (from E. coli F583, Sigma-Aldrich, L6893) LPS was added to the LB broth. Mid-log phase cultures were diluted to OD600 0.1 and 10 µL culture was added to each well of the microtiter plate, resulting in a total volume of 110 µL and an OD600 of ~0.01 (~3 × 10^8 CFU/mL), and the OD600 was measured every 15 min for 12 h using the microplate reader. First, the MIC values of the antibiotics alone and the MIC values of the peptides alone were determined as described previously. Similarly, the MIC values of the antibiotics in combination with the different peptides and the MIC values of the peptides in combination with the antibiotics were determined (the fractional inhibitory concentrations (FIC)). […] An FICindex between 0.5 and 1 was considered to be an additive effect.

[3] = test system: sheep red blood cells; details: sheep RBCs in DMEM, 1 h, 32 °C, OD405; for hemolysis at 50 µM: relative to 1% Triton-X100, negative control polymyxin B nonapeptide
Procedure: Defibrinated sheep blood was purchased from BioTrading (LOT 21118SG66, Mijdrecht, The Netherlands) and kept at 4 °C. As previously described by Phan et al., red blood cells (RBCs) were pelleted by centrifugation at 600× g for 7 min at 4 °C and gently resuspended in phenol red-free Dulbecco’s Modified Eagle Medium (DMEM, Gibco 21063-029, ThermoFisher Scientific, Waltham MA, United States). This was repeated five times until the supernatant appeared colorless. In the meantime, 10-fold dilution series of the peptides at 50 μM, 5 μM and 0.5 μM in 50 µl DMEM, 1% DMSO were made in polypropylene microtiter plates (Ratiolab, L6018123, Dreieich, Germany). Triton-X100 (1%, Sigma-Aldrich T-8787) and DMSO (10%, Sigma-Aldrich D-8418) were used as positive and negative controls, respectively. Polymyxin B (Sigma-Aldrich, p-1411) and polymyxin B nonapeptide (Sigma-Aldrich, p-2076) were used as reference lytic and non-lytic peptides. Then, 50 µL of RBCs was added to each well. The plate was sealed and incubated at 5% CO2 for one hour at 32 °C, after which the plate was centrifuged at 610× g for 5 min at room temperature. Next, 70 µL supernatant was removed and transferred to a flat-bottomed polystyrene microtiter plate (Costar, REF3779) and the OD405, as a measure of released hemoglobin, was determined using a microplate reader (Synergy H1 Multi-Mode Reader or Synergy HTX Multi-Mode Reader, BioTek). Percentage of hemolysis was calculated using the following equation: (2) % hemolysis=(absorbance test sample)-(absorbance diluent)/(absorbance positive control)-(absorbance diluent)

[4] = test system: zebrafish larvae; assay: Toxicity in zebrafish larvae (survival after caudal vein injection); details: survival of uninfected larvae vs vehicle (50% DMSO), five days
Procedure: Transparent Casper zebrafish (Danio rerio) larvae were infected and treated according to protocols described by Van der Sar et al. and Bernard et al. [43, 44]. In short, zebrafish larvae collected from a laboratory-breeding colony kept at 24 °C and a 12:12 h dark/light regime. Larvae were selected based on morphology according to hours post fertilization (hpf) and kept at 28 °C. All protocols followed the international guidelines on the protection of animals used for scientific purposes specified by the EU Directive 2010/63/EU, which allows zebrafish larvae to be used up to the moment of free-living (5–7 dpf). Larvae were dechorionated at 28 hpf and anaesthetized in 0.2% tricaine methanesulfonate (MS222, Fluka A-5040). Larvae were individually infected with 1 nL, containing approximately 100–150 CFU (1–1.5 CFU/mL), of Gram-negative bacteria via microinjection of the caudal vein as described previously [33]. One hour post infection, larvae were treated with cationic (stapled) peptides, antibiotics or a combination of the two via another microinjection of 1 nL in the caudal vein. To correct dilution of the treatment upon injection in the vein (1 nL in 250 nL zebrafish larvae volume), treatments were diluted in 0.1% phenol red (Sigma-Aldrich, p-0290) in phosphate buffered saline (PBS) to 250 times the concentration as tested in vitro. Zebrafish larvae were kept at 30 °C throughout the experiment and survival of the larvae, based on heartbeat, was determined every 24 h for 5 days.

[5] = test system: A. baumannii 1681; assay: MIC / checkerboard synergy assay; type: cell-based, Acinetobacter baumannii; details: compound alone; LB broth, MIC = 90% of growth prevented, OD600 over 12 h; mean ± SD
Procedure: as §1, §2

[6] = test system: A. baumannii 2196; assay: MIC / checkerboard synergy assay; type: cell-based, Acinetobacter baumannii; details: compound alone; LB broth, MIC = 90% of growth prevented, OD600 over 12 h; mean ± SD
Procedure: as §1, §2

[7] = test system: K. pneumoniae 613; assay: MIC / checkerboard synergy assay; type: cell-based, Klebsiella pneumoniae; details: compound alone; LB broth, MIC = 90% of growth prevented, OD600 over 12 h; mean ± SD
Procedure: as §1, §2

[8] = test system: K. pneumoniae 821; assay: MIC / checkerboard synergy assay; type: cell-based, Klebsiella pneumoniae; details: compound alone; LB broth, MIC = 90% of growth prevented, OD600 over 12 h; mean ± SD
Procedure: as §1, §2

[9] = test system: K. pneumoniae 94; assay: MIC / checkerboard synergy assay; type: cell-based, Klebsiella pneumoniae; details: compound alone; LB broth, MIC = 90% of growth prevented, OD600 over 12 h; mean ± SD
Procedure: as §1, §2

Q: With CC(C)C[C@H](NC(=O)[C@H](Cc1c[nH]c2ccccc12)NC(=O)[C@H](CCCNC(=N)N)NC(=O)[C@H](CC(C)C)NC(=O)[C@]1(C)CCCC=CCCC[C@](C)(NC(=O)[C@H](CCCNC(=N)N)NC(=O)[C@@H](N)CCCNC(=N)N)C(=O)N[C@@H](Cc2ccccc2)C(=O)N[C@@H](CCCNC(=N)N)C(=O)N[C@@H](CCCNC(=N)N)C(=O)N1)C(N)=O [Peptide L6S1] (H-RR[S5]FRR[S5]LRWL-NH2; staple 3-7) as the compound, how does the helicity [1] read?
A: The helicity was 28%.

Q: What about the “MIC (compound alone)” value [2] of the same compound?
A: The value was 1.80 ± 2.68 µM.

Q: And the “hemolysis at 50 µM” value [3]?
A: Its value is “significantly more hemolytic to the RBCs than the negative control”.

Q: What about the “Log2FoldChange compared to vehicle injected” value (“Log2FoldChange” for short) [4] of the same compound?
A: The value was 0.04.

Q: With CC[C@H](C)[C@@H]1NC(=O)[C@H](CCCNC(=N)N)NC(=O)[C@H](CCCNC(=N)N)NC(=O)[C@](C)(NC(=O)[C@H](CC(C)C)NC(=O)[C@H](CCCNC(=N)N)NC(=O)[C@@H](N)CCCNC(=N)N)CCCCCCC=CCCC[C@@](C)(C(N)=O)NC(=O)[C@H](Cc2c[nH]c3ccccc23)NC(=O)[C@H](CCCNC(=N)N)NC(=O)[C@H](CC(C)C)NC1=O [Peptide L6S3] (H-RRL[R8]RRILRW[S5]-NH2; staple 4-11) as the compound, how does the helicity [1] read?
A: Its helicity is 23%.

Q: What about the “MIC (compound alone)” value [2] of the same compound?
A: Its value is 1.47 ± 0.48 µM.

Q: What about the “hemolysis at 50 µM” value [3] of the same compound?
A: Its value is “did not cause hemolysis”.

Q: What about the “Log2FoldChange” value [4] of the same compound?
A: The value was -0.40.

Q: For CC(C)C[C@H](NC(=O)[C@H](Cc1c[nH]c2ccccc12)NC(=O)[C@H](CCCCN)NC(=O)[C@H](CCCCN)NC(=O)[C@]1(C)CCCC=CCCC[C@](C)(NC(=O)[C@H](CCCNC(=N)N)NC(=O)[C@@H](N)CCCCN)C(=O)N[C@@H](C(C)C)C(=O)N[C@@H](CCC(N)=O)C(=O)N[C@@H](CCCNC(=N)N)C(=O)N1)C(=O)N[C@@H](CCCNC(=N)N)C(N)=O [Peptide L8S1] (H-KR[S5]VQR[S5]KKWLR-NH2; staple 3-7), which helicity [1] is on record?
A: The helicity was 49%.

Q: What about the “MIC (compound alone)” value [2] of the same compound?
A: The value was 12.76 ± 8.91 µM.

Q: And the “hemolysis at 50 µM” value [3]?
A: The value was “did not cause hemolysis”.

Q: What about the “Log2FoldChange” value [4] of the same compound?
A: The value was -0.45.

Q: Which results are given for CC[C@H](C)[C@H](NC(=O)[C@H](CCCNC(=N)N)NC(=O)[C@@H](N)CCCCN)C(=O)N[C@H](C(=O)N[C@@H](CCC(N)=O)C(=O)N[C@@H](CCCNC(=N)N)C(=O)N[C@@]1(C)CCCC=CCCC[C@@](C)(C(=O)N[C@@H](CCCNC(=N)N)C(N)=O)NC(=O)[C@H](Cc2c[nH]c3ccccc23)NC(=O)[C@H](CCCCN)NC(=O)[C@H](CCCCN)NC1=O)C(C)C [Peptide L8S2] (H-KRIVQR[S5]KKW[S5]R-NH2; staple 7-11)?
A: helicity [1]: 25%; MIC (compound alone) [2]: 8.69 ± 4.29 µM; hemolysis at 50 µM [3]: did not cause hemolysis; Log2FoldChange compared to vehicle injected [4]: 0.11

Q: With KRIVQRIKKWLR-NH2 [Peptide L8] as the compound, how does the helicity [1] read?
A: The helicity was 16%.

Q: And the “MIC, + Rd-LPS (F583)” value [2]?
A: The value was 10.83 ± 8.12 µM.

Q: What about the “MIC, + Sm-LPS (055:B5)” value [2] of the same compound?
A: Its value is 0.53 ± 0.59 µM.

Q: And the “MIC, No supplement” value [2]?
A: Its value is 8.78 ± 11.15 µM.

Q: And the “MIC (compound alone)” value [2]?
A: Its value is 2.53 ± 1.02 µM.

Q: What about the “MIC (compound alone)” value [5] of the same compound?
A: Its value is 5,85±0,47 µM.

Q: What about the “MIC (compound alone)” value [6] of the same compound?
A: The value was 8,54±5,31 µM.

Q: And the “MIC (compound alone)” value [7]?
A: The value was 23,74±29,65 µM.

Q: What about the “MIC (compound alone)” value [8] of the same compound?
A: The value was 43,37±28,38 µM.

Q: What about the “MIC (compound alone)” value [9] of the same compound?
A: The value was 165,45±1,91 µM.

Q: What about the “hemolysis in the concentration range tested (in words)” value ([3]; 0.5, 5 and 50 µM) of the same compound?
A: Its value is “did not cause hemolysis”.

Q: And the “Log2FoldChange” value [4]?
A: Its value is -0.63.

Q: For RRLFRRILRWL-NH2 [Peptide L6], which helicity [1] is on record?
A: The helicity was 15%.

Q: And the “MIC, + Rd-LPS (F583)” value [2]?
A: The value was 0.34 ± 0.40 µM.

Q: And the “MIC, + Ra-LPS (EH100)” value ([2]; LB medium with soluble rough LPS 15 µg/ml)?
A: Its value is 2.50 ± 3.83 µM.

Q: What about the “MIC, + Sm-LPS (055:B5)” value [2] of the same compound?
A: Its value is 9.85 ± 16.34 µM.

Q: What about the “MIC, No supplement” value [2] of the same compound?
A: The value was 1.2 ± 0.43 µM.

Q: What about the “MIC (compound alone)” value [2] of the same compound?
A: Its value is 1.1 ± 1.20 µM.

Q: What about the “MIC (compound alone)” value [5] of the same compound?
A: Its value is 0,66±0,13 µM.

Q: What about the “MIC (compound alone)” value [6] of the same compound?
A: The value was 0,91±0,59 µM.

Q: And the “MIC (compound alone)” value [7]?
A: The value was 0,65±0,15 µM.

Q: What about the “MIC (compound alone)” value [8] of the same compound?
A: The value was 2,44±2,17 µM.

Q: And the “MIC (compound alone)” value [9]?
A: The value was 0,63±0,29 µM.

Q: What about the “hemolysis at 50 µM” value [3] of the same compound?
A: Its value is “up to 50%”.

Q: And the “Log2FoldChange” value [4]?
A: Its value is -0.04.
